These results are taken from ChEMBL document CHEMBL1201862, “PubChem BioAssay data set” (2004).

What all share (experiment): NCI tumour cell line growth inhibition, 48 h
Experiment [1] concerns BT-549.
The test system of experiment [2] is SNB-19.
The test system of experiment [3] is SK-OV-3.
Experiment [4] concerns MCF7.
The subject of experiment [5] is HCT-116.
Experiment [6] deals with SF-295.
Experiment [7] relates to KM12.
For experiment [8], the system named is DU-145.
Experiment [9] deals with SN12C.
For experiment [10], the system named is NCI-H460.
Experiment [11] relates to SR.
Experiment [12] has as its system K562.
For experiment [13], the system named is UO-31.
Experiment [14] has as its system LOX IMVI.
For experiment [15], the system named is UACC-257.
The subject of experiment [16] is SF-268.
The test system of experiment [17] is NCI-H23.
In experiment [18] the test system is OVCAR-5.
In experiment [19] the test system is T47D.
Experiment [20] has as its system CCRF-CEM.

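Each compound was tested at five concentrations against cells in 96-well plates for 48 hours. At the GI50, growth is halved.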 Activity calls are given as the source filed them. Cut-off read from the data, not from the text of the source: active = GI50 up to about 1.1 µM and inactive = higher.

For `OC(COc1ccc(Cl)cc1Cl)CN1CCCC1` (stereo not given), the GI50 in experiment [1] was 30.5 µM (inactive); in [2] it was > 100 µM (inactive); in experiment [3] it was > 100 µM (inactive); in experiment [4], > 100 µM (inactive); in experiment [5] it was 87.3 µM (inactive); in experiment [6], 89.7 µM (inactive). Also, the GI50 in experiment [7] is > 100 µM (inactive); in experiment [8], > 100 µM (inactive); in experiment [9], > 100 µM (inactive); in experiment [10] it was 91.6 µM (inactive); in experiment [11], 64.6 µM (inactive); in [12], 71.6 µM (inactive). Moreover, the GI50 in experiment [13] is > 100 µM (inactive); in [14] it was > 100 µM (inactive); in experiment [15], 24.2 µM (inactive); in experiment [16], > 100 µM (inactive); in [17], > 100 µM (inactive); in [18], > 100 µM (inactive). For the same compound, the figures for the GI50 in experiment [19] and in [20] were > 100 µM (inactive) and 87.9 µM (inactive), respectively.
For the compound `COc1cc(-c2nc3ccccn3c2/N=C/c2cc(Br)cc(Br)c2O)ccc1O`, the GI50 in [1] is 20.3 µM (inactive); in [2], 26.1 µM (inactive); in experiment [3], 23.9 µM (inactive); in experiment [4], 22.3 µM (inactive); in experiment [5], 18.4 µM (inactive); in experiment [6], 20.7 µM (inactive). For the same compound, the GI50 in experiment [7] was 24.2 µM (inactive); in experiment [8] it was 27.6 µM (inactive); in experiment [9], 19.5 µM (inactive); in experiment [10], 35.1 µM (inactive); in [11] it was 25.9 µM (inactive); in [12], 28.6 µM (inactive). The GI50 is 13.7 µM (inactive) in [13]; 24 µM (inactive) in experiment [14]; 27.1 µM (inactive) in [15]; 14.3 µM (inactive) in [16]; 24.3 µM (inactive) in experiment [17]; 31.4 µM (inactive) in [18]. For the same compound, the results for the GI50 in [19] and in experiment [20] were 23.3 µM (inactive) and 17.7 µM (inactive), respectively.
With `Cc1cc2c3ccccc3n(C)c2c2c1C(=O)C=CC2=O`, the GI50 was 13.9 µM (inactive) in experiment [1]; 28.5 µM (inactive) in [2]; 21.1 µM (inactive) in experiment [3]; 4.3 µM (inactive) in [4]; 20 µM (inactive) in experiment [5]; 27.7 µM (inactive) in experiment [6]. Also, the GI50 was 17 µM (inactive) in experiment [7]; 21.7 µM (inactive) in [8]; 18.1 µM (inactive) in [9]; 17.1 µM (inactive) in [10]; 4.68 µM (inactive) in [11]; 5.33 µM (inactive) in [12]. The GI50 is 21.8 µM (inactive) in experiment [13]; 17.5 µM (inactive) in experiment [14]; 13.2 µM (inactive) in experiment [15]; 17.2 µM (inactive) in experiment [16]; 12.4 µM (inactive) in experiment [17]; 21.1 µM (inactive) in [18]. Further, the GI50 in experiment [19] is 3.39 µM (inactive); in [20] it was 2.42 µM (inactive).
`O=C1c2ccccc2CC12Cc1ccc3c(c1C2)CCC3` (stereo not given): the GI50 in experiment [1] was 35.8 µM (inactive); in [2], 48.1 µM (inactive); in experiment [3] it was 33.3 µM (inactive); in experiment [4], 16.9 µM (inactive); in experiment [5] it was 16.9 µM (inactive); in experiment [6], 25.4 µM (inactive). The GI50 in experiment [7] is 24.4 µM (inactive); in [8] it was 34.6 µM (inactive); in experiment [9], 26.7 µM (inactive); in experiment [10] it was 23.7 µM (inactive); in [11], 14 µM (inactive); in experiment [12] it was 22.3 µM (inactive). Moreover, the GI50 in [13] was 23.4 µM (inactive); in experiment [14] it was 12.4 µM (inactive); in experiment [15] it was 11.7 µM (inactive); in experiment [16] it was 30 µM (inactive); in experiment [17], 28.8 µM (inactive); in experiment [18] it was 17.2 µM (inactive). Besides, the figures for the GI50 in experiment [19] and in [20] were 19.1 µM (inactive) and 16.8 µM (inactive), respectively.
With `COc1ccc(-c2nnc(CCCCCCCCc3nnc(-c4ccc(OC)cc4)n3N)n2N)cc1`, the GI50 in experiment [1] was 58.5 µM (inactive); in experiment [2], > 60.3 µM (inactive); in experiment [3], > 56.2 µM (inactive); in [4], > 100 µM (inactive); in experiment [5], > 66.1 µM (inactive); in [6], > 59.4 µM (inactive). The GI50 in experiment [7], in experiment [8], in [9], in experiment [10], in experiment [11] and in [12] was > 100 µM (inactive) throughout. For the same compound, the GI50 was > 100 µM (inactive) in experiment [13]; > 100 µM (inactive) in experiment [14]; > 100 µM (inactive) in experiment [15]; > 58.2 µM (inactive) in [16]; > 100 µM (inactive) in experiment [17]; > 100 µM (inactive) in [18]. The GI50 in [19] and in experiment [20] was > 100 µM (inactive) throughout.
In the case of `COc1cc2c(cc1OC)[C@H]1C(=O)c3cc4c(cc3[C@H]1N(C)C2=O)OCO4`, the GI50 in [1] is > 49.4 µM (inactive); in experiment [2], 6.35 µM (inactive); in experiment [3] it was 6.7 µM (inactive); in experiment [4] it was 2.4 µM (inactive); in experiment [5], 2.22 µM (inactive); in experiment [6] it was 2.35 µM (inactive). The GI50 was 36.6 µM (inactive) in experiment [7]; 8.43 µM (inactive) in [8]; 2.83 µM (inactive) in experiment [9]; 0.955 µM (active) in [10]; 0.557 µM (active) in experiment [11]; 0.869 µM (active) in [12]. Besides, the GI50 is 1.42 µM (inactive) in experiment [13]; 1.5 µM (inactive) in experiment [14]; 6.32 µM (inactive) in [15]; 4.17 µM (inactive) in [16]; 5.2 µM (inactive) in experiment [17]; > 100 µM (inactive) in experiment [18]. Also, the GI50 in experiment [19] is > 28.2 µM (inactive); in experiment [20], 0.366 µM (active).
Take `CCCS(=O)OC1C(C2COC(C)(C)O2)OC2OC(C)(C)OC21` (stereo not given): the GI50 in experiment [1] is 12.1 µM (inactive); in experiment [2], 15 µM (inactive); in [3], 22 µM (inactive); in experiment [4], 12.4 µM (inactive); in experiment [5] it was 6.07 µM (inactive); in [6], 15.1 µM (inactive). For the same compound, the GI50 in [7] was 13.1 µM (inactive); in experiment [8] it was 20.2 µM (inactive); in experiment [9], 12.5 µM (inactive); in experiment [10], 22.8 µM (inactive); in experiment [11], 0.497 µM (active); in experiment [12], 5.65 µM (inactive). Moreover, the GI50 was 15 µM (inactive) in experiment [13]; 6.43 µM (inactive) in experiment [14]; 13.6 µM (inactive) in experiment [15]; 17.9 µM (inactive) in [16]; 7.26 µM (inactive) in experiment [17]; 12.2 µM (inactive) in experiment [18]. Further, the GI50 in experiment [19] was 20.9 µM (inactive); in experiment [20] it was 3.15 µM (inactive).
On to `CC1OC(O[C@H]2CC[C@]3(C=O)[C@H]4CC[C@]5(C)[C@H](C6=CC(=O)OC6)CC[C@]5(O)[C@@H]4C=C[C@]3(O)C2)CC(O)C1O` (stereo not given in full), for which the GI50 in experiment [1] was 0.224 µM (active); in [2], 0.942 µM (active); in experiment [3] it was 0.502 µM (active); in experiment [4] it was 0.272 µM (active); in experiment [5] it was 0.0885 µM (active); in experiment [6], 0.13 µM (active). Further, the GI50 in experiment [7] is 0.676 µM (active); in [8] it was 0.128 µM (active); in experiment [9] it was 0.117 µM (active); in experiment [10] it was 0.118 µM (active); in experiment [11] it was 0.0933 µM (active); in experiment [12], 0.294 µM (active). The GI50 was 0.214 µM (active) in [13]; 0.292 µM (active) in experiment [14]; 0.579 µM (active) in experiment [15]; 0.176 µM (active) in experiment [16]; 0.143 µM (active) in experiment [17]; 0.547 µM (active) in experiment [18]. For the same compound, the GI50 in experiment [19] is 0.524 µM (active); in experiment [20], 0.102 µM (active).
For `COc1cccc(-c2cc(O)c3cc(OC)ccc3n2)c1`, the GI50 in experiment [1] is 0.392 µM (active); in experiment [2] it was 0.39 µM (active); in experiment [3] it was 0.208 µM (active); in experiment [4] it was 0.364 µM (active); in experiment [5], 0.239 µM (active); in experiment [6], 0.18 µM (active). Moreover, the GI50 was 0.396 µM (active) in [7]; 0.429 µM (active) in [8]; 0.685 µM (active) in experiment [9]; 0.365 µM (active) in experiment [10]; 0.0815 µM (active) in experiment [11]; 0.128 µM (active) in [12]. Also, the GI50 was 0.426 µM (active) in experiment [13]; 0.439 µM (active) in [14]; 0.865 µM (active) in experiment [15]; 0.71 µM (active) in experiment [16]; 0.32 µM (active) in experiment [17]; 0.452 µM (active) in experiment [18]. Further, the GI50 is > 10 µM (inactive) in [19] and 0.195 µM (active) in experiment [20].
On to `COC1(C)CCC(OS(C)(=O)=O)CO1` (stereo not given), for which the GI50 in experiment [1], in [2], in experiment [3], in [4], in experiment [5] and in experiment [6] was > 100 µM (inactive) throughout. In addition, the GI50 in experiment [7], in [8], in experiment [9], in [10], in experiment [11] and in experiment [12] was > 100 µM (inactive) throughout. Moreover, the GI50 in [13], in experiment [14], in experiment [15], in [16], in [17] and in experiment [18] was > 100 µM (inactive) each time. Also, the GI50 in experiment [19] and in [20] was > 100 µM (inactive) each time.
